From publication PMC5717224, “New Hybrid Hydrazinyl Thiazole Substituted Chromones: As Potential α-Amylase Inhibitors and Radical (DPPH & ABTS) Scavengers” (Scientific Reports, 2017)

Tests used:
[1] = ABTS free radical cation scavenging assay; settings: absorbance 734 nm, 30 min incubation; read-out: ABTS radical scavenging activity IC50 ± SEM
Protocol: The (ABTS+) 2,2ʹ-azino-bis(3-ethylbenzothiazoline-6-sulphonic acid) free radical cation scavenging ability of the compounds was determined by standard method. 7 mM ABTS was dissolved in distilled water and 2.45 mM potassium persulfate was added. The solution was kept in the dark for 12–16 h at room temperature. The sample solutions were prepared in absolute alcohol ranging from 0.01 mg/mL to 1 mg/mL. The samples were added with ABTS solution and incubated for 30 min. The absorbance was taken at 734 nm and the procedure was repeated for ascorbic acid as standard.
(§1) The percentage inhibition of radical scavenging activity was calculated as illustrated, %Inhibition=(AbsorbanceControl−AbsorbanceSample)/AbsorbanceControl×100

[2] = DPPH free radical scavenging assay; settings: absorbance 517 nm, 20 min incubation; read-out: DPPH radical scavenging activity IC50 ± SEM
Protocol: The ability of the sample to scavenge, 2-diphenyl-1-picrylhydrazyl (DPPH) free radicals was evaluated by standard method. The sample solutions were prepared in absolute alcohol, ranging from 0.01 mg/mL to 1 mg/mL. A total of 500 μL of sample was added with 500 µL of 2 µmol DPPH solution. After 20 min of incubation, the samples were placed in the dark at room temperature, the absorbance was taken at 517 nm. 500 µL of prepared DDPH solution and 500 µL of absolute alcohol were used as control. The similar procedure was repeated for ascorbic acid as standard[41],[42].
as §1

Compound	IC50 [1]	IC50 [2]	melting point
N#Cc1ccc(-c2csc(N/N=C\c3coc4ccccc4c3=O)n2)cc1 [Compound 14, (Z)-4-(2-(2-((4-Oxo-4H-chromen-3-yl)methylene)hydrazinyl)thiazol-4-yl)benzonitrile]	1260 ± 70 nM	1290 ± 100 nM	225 to 227 °C
O=c1c(/C=N\Nc2nc(-c3cccc([N+](=O)[O-])c3)cs2)coc2ccccc12 [Compound 13, (Z)-3-((2-(4-(3-Nitrophenyl)thiazol-2-yl)hydrazono)methyl)-4H-chromen-4-one]	1890 ± 50 nM	1740 ± 40 nM	235 to 237 °C
O=c1c(/C=N\Nc2nc(-c3ccc(Cl)c(Cl)c3)cs2)coc2ccccc12 [Compound 9, (Z)-3-((2-(4-(3,4-Dichlorophenyl)thiazol-2-yl)hydrazono)methyl)-4H-chromen-4-one]	784 ± 120 nM	314 ± 120 nM	245 to 247 °C
O=c1c(/C=N\Nc2nc(-c3ccc(Br)cc3)cs2)coc2ccccc12 [Compound 7, (Z)-3-((2-(4-(4-Bromophenyl)thiazol-2-yl)hydrazono)methyl)-4H-chromen-4-one]	830 ± 250 nM	892 ± 90 nM	230 to 232 °C
O=c1c(/C=N\Nc2nc(-c3ccc(Cl)cc3Cl)cs2)coc2ccccc12 [Compound 10, (Z)-3-((2-(4-(2,4-Dichlorophenyl)thiazol-2-yl)hydrazono)methyl)-4H-chromen-4-one]	677 ± 260 nM	90 ± 170 nM	243 to 245 °C
O=c1c(/C=N\Nc2nc(-c3cccc(Br)c3)cs2)coc2ccccc12 [Compound 8, (Z)-3-((2-(4-(3-Bromophenyl)thiazol-2-yl)hydrazono)methyl)-4H-chromen-4-one]	914 ± 190 nM	912 ± 230 nM	225 to 227 °C
O=c1c(/C=N\Nc2nc(-c3ccccc3)cs2)coc2ccccc12 [Compound 5, (Z)-3-((2-(4-Phenylthiazol-2-yl)hydrazono)methyl)-4H-chromen-4-one]	1080 ± 150 nM	1110 ± 150 nM	223 to 225 °C
O=c1c(/C=N\Nc2nc(-c3cccc(Cl)c3)cs2)coc2ccccc12 [Compound 12, (Z)-3-((2-(4-(3-Chlorophenyl)thiazol-2-yl)hydrazono)methyl)-4H-chromen-4-one]	1080 ± 80 nM	1050 ± 30 nM	228 to 230 °C
NC(=S)N/N=C\c1coc2ccccc2c1=O [Compound 3, (Z)-2-((4-Oxo-4H-chromen-3-yl)methylene) hydrazinecarbothioamide]	1920 ± 90 nM	1900 ± 60 nM	240 to 242 °C
O=C1O[C@H]([C@@H](O)CO)C(O)=C1O [Ascorbic acid, reference compound]	530 ± 300 nM	330 ± 180 nM	
O=c1c(/C=N\Nc2nc(-c3ccc(Cl)cc3)cs2)coc2ccccc12 [Compound 11, (Z)-3-((2-(4-(4-Chlorophenyl)thiazol-2-yl)hydrazono)methyl)-4H-chromen-4-one]	918 ± 140 nM	922 ± 220 nM	239 to 241 °C
O=c1c(/C=N\Nc2nc(-c3ccc(-c4ccccc4)cc3)cs2)coc2ccccc12 [Compound 15, (Z)-3-((2-(4-(Biphenyl-4-yl)thiazol-2-yl)hydrazono)methyl)-4H-chromen-4-one]	1640 ± 40 nM	1410 ± 50 nM	234 to 236 °C

Second part, the compound after the results:

IC50 [1]	IC50 [2]	melting point	Compound
1260 ± 100 nM	1140 ± 120 nM	245 to 247 °C	Cc1ccc2occ(/C=N\NC(N)=S)c(=O)c2c1 [Compound 4, (Z)-2-((6-Methyl-4-oxo-4H-chromen-3-yl)methylene)hydrazinecarbothioamide]
3740 ± 600 nM	2230 ± 790 nM		O=Cc1coc2ccccc2c1=O [Compound 1, 4-Oxo-4H-chromene-3-carbaldehyde]
719 ± 100 nM	688 ± 170 nM	246 to 248 °C	Cc1ccc2occ(/C=N\Nc3nc(-c4ccc(Cl)c(Cl)c4)cs3)c(=O)c2c1 [Compound 22, (Z)-3-((2-(4-(3,4-Dichlorophenyl)thiazol-2-yl)hydrazono)methyl)-6-methyl-4H-chromen-4-one]
820 ± 180 nM	840 ± 100 nM	245 to 247 °C	Cc1ccc2occ(/C=N\Nc3nc(-c4ccc(Cl)cc4)cs3)c(=O)c2c1 [Compound 23, (Z)-3-((2-(4-(4-Chlorophenyl)thiazol-2-yl)hydrazono)methyl)-6-methyl-4H-chromen-4-one]
1280 ± 40 nM	1300 ± 130 nM	238 to 240 °C	Cc1ccc2occ(/C=N\Nc3nc(-c4ccc(C#N)cc4)cs3)c(=O)c2c1 [Compound 26, (Z)-4-(2-(2-((6-Methyl-4-oxo-4H-chromen-3-yl)methylene)hydrazinyl)thiazol-4-yl)benzonitrile]
1300 ± 110 nM	1310 ± 60 nM	240 to 242 °C	Cc1ccc2occ(/C=N\Nc3nc(-c4cccc([N+](=O)[O-])c4)cs3)c(=O)c2c1 [Compound 25, (Z)-6-Methyl-3-((2-(4-(3-nitrophenyl)thiazol-2-yl)hydrazono)methyl)-4H-chromen-4-one]
1290 ± 70 nM	1340 ± 70 nM	235 to 237 °C	Cc1ccc2occ(/C=N\Nc3nc(-c4ccc(-c5ccccc5)cc4)cs3)c(=O)c2c1 [Compound 27, (Z)-3-((2-(4-(Biphenyl-4-yl)thiazol-2-yl)hydrazono)methyl)-6-methyl-4H-chromen-4-one]
1892 ± 10 nM	1900 ± 30 nM		O=c1c(/C=N\Nc2nc(-c3cccc(O)c3)cs2)coc2ccccc12 [Compound 6, (Z)-3-((2-(4-(3-Hydroxyphenyl)thiazol-2-yl)hydrazono)methyl)-4H-chromen-4-one]
584 ± 70 nM	781 ± 180 nM		Cc1ccc2occ(/C=N\Nc3nc(-c4cccc(Br)c4)cs3)c(=O)c2c1 [Compound 19, (Z)-3-((2-(4-(3-Bromophenyl)thiazol-2-yl)hydrazono)methyl)-6-methyl-4H-chromen-4-one]
710 ± 90 nM	684 ± 130 nM	245 to 247 °C	Cc1ccc2occ(/C=N\Nc3nc(-c4ccc(Cl)cc4Cl)cs3)c(=O)c2c1 [Compound 21, (Z)-3-((2-(4-(2,4-Dichlorophenyl)thiazol-2-yl)hydrazono)methyl)-6-methyl-4H-chromen-4-one]
660 ± 160 nM	611 ± 290 nM	235 to 237 °C	Cc1ccc2occ(/C=N\Nc3nc(-c4ccc(Br)cc4)cs3)c(=O)c2c1 [Compound 20, (Z)-3-((2-(4-(4-Bromophenyl)thiazol-2-yl)hydrazono)methyl)-6-methyl-4H-chromen-4-one]
1730 ± 50 nM	1660 ± 600 nM	230 to 232 °C	Cc1ccc2occ(/C=N\Nc3nc(-c4ccccc4O)cs3)c(=O)c2c1 [Compound 18, (Z)-3-((2-(4-(2-Hydroxyphenyl)thiazol-2-yl)hydrazono)methyl)-6-methyl-4H-chromen-4-one]
1020 ± 40 nM	990 ± 120 nM	230 to 232 °C	Cc1ccc2occ(/C=N\Nc3nc(-c4cccc(Cl)c4)cs3)c(=O)c2c1 [Compound 24, (Z)-3-((2-(4-(3-Chlorophenyl)thiazol-2-yl)hydrazono)methyl)-6-methyl-4H-chromen-4-one]
1320 ± 200 nM	1370 ± 200 nM	235 to 237 °C	Cc1ccc2occ(/C=N\Nc3nc(-c4ccccc4)cs3)c(=O)c2c1 [Compound 16, (Z)-6-Methyl-3-((2-(4-phenylthiazol-2-yl)hydrazono)methyl)-4H-chromen-4-one]
1380 ± 50 nM	1340 ± 90 nM	237 to 239 °C	Cc1ccc2occ(/C=N\Nc3nc(-c4cccc(O)c4)cs3)c(=O)c2c1 [Compound 17, (Z)-3-((2-(4-(3-Hydroxyphenyl)thiazol-2-yl)hydrazono)methyl)-6-methyl-4H-chromen-4-one]
2230 ± 60 nM	2230 ± 600 nM	173 to 175 °C	Cc1ccc2occ(C=O)c(=O)c2c1 [Compound 2, 6-Methyl-4-oxo-4H-chromene-3-carbaldehyde]
